Molecular target: T1, Human Factor D (Homo sapiens, UniProt P00746)
T1 construct: purified from human serum; purchased Complement Technology, Inc; host or cells: human serum (natural protein, not recombinant)
Assay: Human Factor D Assay
Type: biochemical
Conditions: Human Factor D 80 nM, substrate Z-L-Lys-SBzl; Table 2; read-out: IC50 (Stars)
Method in brief: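 Serum-purified human factor D (80 nM final) preincubated 5 min at room temperature with test compound in 50 mM Tris, 1M NaCl, pH 7.5. Z-L-Lys-SBzl substrate and DTNB then added, each at 100 μM final. IC50 from nonlinear regression of reaction rate against compound concentration.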

T1 sequence (P00746 26-253): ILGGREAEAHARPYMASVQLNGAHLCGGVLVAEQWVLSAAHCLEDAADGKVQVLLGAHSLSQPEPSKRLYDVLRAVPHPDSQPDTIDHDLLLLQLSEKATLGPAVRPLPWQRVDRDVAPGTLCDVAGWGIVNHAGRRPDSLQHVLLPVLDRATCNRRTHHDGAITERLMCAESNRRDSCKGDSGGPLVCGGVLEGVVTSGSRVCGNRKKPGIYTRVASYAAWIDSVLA

IC50: < 1 µM
Structure (SMILES): CC(=O)c1cn(CC(=O)N2C[C@H]3C[C@H]3[C@H]2C(=O)Nc2nc(Br)ccc2C)c2c(C)cc(-c3cnc(CO)nc3)cc12 [Compound 79, (1R,2S,5S)-3-(2-(3-acetyl-5-(2-(hydroxymethyl)pyrimidin-5-yl)-7-methyl-11H-indol-1-yl)acetyl)-N-(6-bromo-3-methylpyridin-2-yl)-3-azabicyclo[3.1.0]hexane-2-carboxamide]

Reference: patent US20230022157A1 (Achillion Pharmaceuticals, Inc., priority 2018, published 2023)
